Reference: patent US12428422B2, “Purine derivatives as SIK-3 inhibitors” (RHIZEN PHARMACEUTICALS AG, priority 2020, dated 2025)

Key:
Assay type in all cases: cell-based
SK-OV-3 cell lines = assay: MTT cell growth inhibition, combination with taxol, SK-OV-3; settings: combined with taxol, 72 hrs
Protocol: (§1) Assay 6: Combination of Compound M1 with Standard Agents in Different Cell Lines
(§2) Day 0 • The cells were pelleted and counted. • Cells were plated at desired density (100 μl/well) in complete media in a 96-well plate in triplicates. A column for Day “0” reading was also seeded. (18-20 hrs after initial plating and before addition of the inhibitors) • Plates were incubated at 37° C. and 5% CO2. Day 1 • 10 μl of MTT (5 mg/ml) were added to the column designated for Day “0”. It was mixed well and incubated at 37° C. and 5% CO2 for 3.5 h. Cells were pelleted down at 4000 rpm for 10 minutes. • Media was aspirated out and 150 μl of DMSO were added to the cells and mixed by pipetting to dissolve the crystals • The plate was read at A560 nm and A640 nm. Day 2 • A series of dilutions of the inhibitors were initially made in 100% DMSO and further diluted in growth medium. • Cells were treated with either single agent of DMSO, compound M1, taxol, and a combination of compound M1 and taxol (MDA-MB-231, MCF-7, ZR.75.1 and SK-OV-3). […] Crystals were dissolved by repeated pipetting. • The plate was read at A560 nm and A640 nm. […]
(§3) Reference absorbance values were subtracted from test absorbance values. Day 0 values were subtracted from final day absorbance values for determining cell growth. % Cell growth inhibitions were calculated.

mouse IL-10 mRNA = assay: IL-10 mRNA expression in LPS-stimulated mouse bone marrow derived macrophages (real-time PCR); settings: LPS (1 μg/ml) stimulated mouse BMDM; 1 μM Compound M1 vs 1 μM dasatinib (FIG. 2C)
Protocol: Assay 2: Evaluation of mRNA Expression Levels of IL-10, TNFα, and Arginase-1 in LPS-Stimulated (1 μg/ml) Mouse Bone Marrow Derived Macrophages (BMDM).
Mouse-Bone Marrow Cell Isolation
• Femur bones from healthy mice were collected taking all aseptic precautions. • Bones were severed proximal to each joint using sterile scissors. • A 10 ml syringe with 25-G needle was filled with cold sterile wash medium (DMEM/F12 medium+10% FBS (fetal bovine serum)+1% Penicillin-streptomycin). • The needle was inserted into bone marrow cavity of femur and the cavity was flushed with 2-5 mL of wash medium, until the bone cavity appeared white. • Wash medium was collected in a 50 mL tube and centrifuged at 500×g for 10 minutes at room temperature. • Cells were resuspended in DMEM/F12 medium and cell count was taken. […]
Fold change in the mRNA expression was calculated by 2^−ΔΔCt method and data was plotted using GraphPad Prism.

OVCAr-3 cell lines = assay: MTT cell growth inhibition, combination with talzoparib, OVCAR-3; settings: combined with talzoparib, 72 hrs
Protocol: Assay 5: Combination of Compound M1 with Standard Agents in Different Cell Lines
Day 0 • The cells were pelleted and counted. • Cells were plated at desired density (100 μl/well) in complete media in a 96-well plate in triplicates. A column for Day “0” reading was also seeded. (18-20 hrs after initial plating and before addition of the inhibitors) • Plates were incubated at 37° C. and 5% CO2. Day 1 • 10 μl of MTT (5 mg/ml) were added to the column designated for Day “0”. It was mixed well and incubated at 37° C. and 5% CO2 for 3.5 h. Cells were pelleted down at 4000 rpm for 10 minutes. • Media was aspirated out and 150 μl of DMSO were added to the cells and mixed by pipetting to dissolve the crystals • The plate was read at A560 nm and A640 nm. Day 2 • A series of dilutions of the inhibitors were initially made in 100% DMSO and further diluted in growth medium. • Cells were treated with either single agent of DMSO, compound M1, talzoparib, and combination of compound M1 and talzoparib (OVCAr-3 and SK-OV-3). […]
The plate was read at A560 nm and A640 nm.
as §3

MCF-7 cell lines = assay: MTT cell growth inhibition, combination with taxol, MCF-7; settings: combined with taxol, 72 hrs
Protocol: as §1, §2, §3

ZR.75.1 cell lines = assay: MTT cell growth inhibition, combination with taxol, ZR.75.1; settings: combined with taxol, 72 hrs
Protocol: as §1, §2, §3

CC[C@H](Nc1ncnc2[nH]c(O)nc12)c1oc2ccccc2c(=O)c1-c1cccc(F)c1 [Compound M1, (S)-3-(3-fluorophenyl)-2-(1-((8-hydroxy-9H-purin-6-yl)amino)propyl)-4H-chromen-4-one]
cell growth inhibition in combination (SK-OV-3 cell lines): synergistic results | mouse IL-10 mRNA expression, potency relative to dasatinib (mouse IL-10 mRNA): equally potent as dasatinib | cell growth inhibition in combination (OVCAr-3 cell lines): synergistic results | cell growth inhibition in combination (MCF-7 cell lines): synergistic results | cell growth inhibition in combination (ZR.75.1 cell lines): synergistic results
